The target of test [1] is T1, COX-1 (Homo sapiens, UniProt P23219).
T1 construct: host or cells: U-937 human lymphoma cells
Briefly: Assay for the COX-1 inhibitory activity using U-937 (PGE2 inhibition). It is filed as cell-based. Conditions: U-937 human lymphoma cells, test compound 1 μM, PGE2 vs DMSO control; read-out: Cyclooxygenase (COX) Inhibition (%) COX-1 (1 μM). As for the experimental part:
The collected cells were diluted with HBSS (×1, Hank's balanced salt solution) to a concentration of 1×10^6 cells/ml. 1 ml of the dilute cell solution was placed into each well of 12-well plates. 5 μl of 1 μM solution of a test compound in DMSO and 5 μl of DMSO as a control were added to the wells. The wells were incubated in CO2 incubator at 37° C. for 15 minutes. Separately, 10 mM stock solution of arachidonic acid in ethanol was diluted ten times in ethanol to prepare 1 mM solution of arachidonic acid. Arachidonic acid acts as a substrate. 10 μl of the 1 mM solution of arachidonic acid was added to each well and incubated at CO2 incubator at 37° C. for 30 minutes. The cell solution of each well was placed in a centrifuge test tube and centrifuged at 10,000 rpm at 4° C. for 5 minutes. The concentration of PGE2 in the collected cells and the supernatant was quantified by means of a monoclonal kit (Cayman Chemicals). The percentages of PGE2 inhibition in a group of the test compound-treated cells in relation to a group of the DMSO-treated cells were calculated. Based on the calculated values, the COX-1 inhibitory activities were evaluated.
(§1) The percentages of the COX inhibition were calculated according to the following equation:
(§2) % Inhibition=(concentration of PGE2 in test compound-untreated sample —concentration of PGE2 in test compound-treated sample)/(concentration of PGE2 in test compound-untreated sample)×100

The target in test [2] is T2, COX-2 (Mus musculus, UniProt Q05769).
T2 construct: host or cells: RAW 264.7 cells, aspirin-pretreated, then induced with interferon and LPS
T2 sequence (Q05769 18-604): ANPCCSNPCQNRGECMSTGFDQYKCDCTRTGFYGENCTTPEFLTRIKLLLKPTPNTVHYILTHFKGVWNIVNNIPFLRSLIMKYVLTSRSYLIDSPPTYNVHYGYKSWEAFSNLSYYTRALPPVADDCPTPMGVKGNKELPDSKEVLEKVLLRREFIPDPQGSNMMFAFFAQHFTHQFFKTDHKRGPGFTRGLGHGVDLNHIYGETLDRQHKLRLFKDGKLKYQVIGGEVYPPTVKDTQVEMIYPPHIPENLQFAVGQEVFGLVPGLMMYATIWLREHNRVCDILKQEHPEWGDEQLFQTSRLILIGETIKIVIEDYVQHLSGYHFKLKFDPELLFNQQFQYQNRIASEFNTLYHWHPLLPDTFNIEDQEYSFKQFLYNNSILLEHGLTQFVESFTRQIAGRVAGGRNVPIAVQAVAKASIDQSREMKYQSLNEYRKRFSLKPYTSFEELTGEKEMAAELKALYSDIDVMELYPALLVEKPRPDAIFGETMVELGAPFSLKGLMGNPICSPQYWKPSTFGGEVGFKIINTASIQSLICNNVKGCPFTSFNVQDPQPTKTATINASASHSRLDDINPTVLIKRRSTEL
Briefly: Assay for the COX-2 inhibitory activity using RAW 264.7 cell line (PGE2 inhibition). It is filed as cell-based. Conditions: RAW264.7, RAW 264.7 cells, test compound 10 nM, interferon/LPS 18 hours, read-out: Cyclooxygenase (COX) Inhibition (%) COX-2 (10 nM). The protocol: Each well was treated with 250 μM of aspirin and incubated at 37° C. for 2 hours. After the culture media were replaced with new culture media, the new culture media were treated with a test compound (10 nM) and incubated for 30 minutes. Then, each well was treated with interferon (100 units/ml) and lipopolysaccharide (LPS, 100 ng/ml) and incubated for 18 hours. The culture media were transferred to other test tubes. The concentration of PGE2 was quantified by means of the EIA kit (Cayman Chemicals).
as §1, §2

T1 sequence (P23219 24-599): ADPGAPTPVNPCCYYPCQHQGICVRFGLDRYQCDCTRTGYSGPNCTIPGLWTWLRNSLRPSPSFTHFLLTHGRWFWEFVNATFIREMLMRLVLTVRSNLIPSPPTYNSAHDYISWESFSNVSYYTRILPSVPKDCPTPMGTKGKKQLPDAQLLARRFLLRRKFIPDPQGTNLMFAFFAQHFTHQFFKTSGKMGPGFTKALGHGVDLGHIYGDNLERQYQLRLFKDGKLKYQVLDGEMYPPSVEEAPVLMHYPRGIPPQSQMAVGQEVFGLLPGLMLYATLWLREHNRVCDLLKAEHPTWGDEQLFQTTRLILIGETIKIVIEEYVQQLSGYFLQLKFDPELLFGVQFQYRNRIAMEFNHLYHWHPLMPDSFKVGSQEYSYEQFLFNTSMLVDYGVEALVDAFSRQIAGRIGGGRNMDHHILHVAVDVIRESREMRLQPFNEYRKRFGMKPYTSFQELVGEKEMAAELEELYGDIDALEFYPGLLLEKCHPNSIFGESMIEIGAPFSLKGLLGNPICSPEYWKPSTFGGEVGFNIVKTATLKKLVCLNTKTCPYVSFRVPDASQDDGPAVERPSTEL

Consider `CS(=O)(=O)c1ccc(-n2nc(C(F)(F)F)nc2-c2ccc(Cl)cc2)cc1F` [Example 26], for which, in test [1], the inhibition at 1 µM was found to be 27.4%. Moreover, in test [2], the inhibition at 0.01 µM turned out to be 22.3%.
Regarding `CS(=O)(=O)c1ccc(-n2nc(C(F)(F)F)nc2-c2ccc3ccccc3c2)cc1F` [Example 33, 1-(3-fluoro-4-methanesulfonylphenyl)-5-(naphthalene-2-yl)-3-trifluoromethyl-1H-1,2,4-triazole], the inhibition at 1 µM in test [1] came out at 44.5%. Besides, in test [2], the inhibition at 0.01 µM was 13.5%.
On the same counts, the results for `CS(=O)(=O)c1ccc(-n2nc(C(F)(F)F)nc2-c2cccc(Cl)c2)cc1F` [Example 29, 1-(3-fluoro-4-methanesulfonylphenyl)-5-(3-chlorophenyl)-3-trifluoro methyl-1H-1,2,4-triazole] are 11.1% and 16.4%.
The corresponding values for `Cc1cccc(-c2nc(C(F)(F)F)nn2-c2ccc(S(C)(=O)=O)c(F)c2)c1` [Example 32, 1-(3-fluoro-4-methanesulfonylphenyl)-5-(3-methylphenyl)-3-trifluoromethyl-1H-1,2,4-triazole] are 23.2% and 27.8%.
The corresponding values for `CS(=O)(=O)c1ccc(-n2nc(C(F)(F)F)nc2-c2cccc(F)c2)cc1F` [Example 30, 1-(3-fluoro-4-methanesulfonylphenyl)-5-(3-fluorophenyl)-3-trifluoro methyl-1H-1,2,4-triazole] are 23.2% and 15.1%.
Consider `CS(=O)(=O)c1ccc(-n2nc(C(F)(F)F)nc2-c2ccc(F)cc2)cc1F` [Example 24, 1-(3-fluoro-4-methanesulfonylphenyl)-5-(4-fluorophenyl)-3-trifluoro methyl-1H-1,2,4-triazole], for which, in test [1], the inhibition at 1 µM is 18.8%. Moreover, in test [2], the inhibition at 0.01 µM amounted to 18.5%.
`COc1ccc(-c2nc(C(F)(F)F)nn2-c2ccc(S(C)(=O)=O)c(F)c2)cc1` [Example 23, 1-(3-fluoro-4-methanesulfonylphenyl)-5-(4-methoxyphenyl)-3-trifluoromethyl-1H-1,2,4-triazole]: the inhibition at 1 µM in test [1] worked out at 15.5%. Besides, the inhibition at 0.01 µM in test [2] was determined as 41.2%.
On to `CCOc1ccc(-c2nc(C(F)(F)F)nn2-c2ccc(S(C)(=O)=O)c(F)c2)cc1` [Example 28, 1-(3-fluoro-4-methanesulfonylphenyl)-5-(4-ethoxyphenyl)-3-trifluoromethyl-1H-1,2,4-triazole], for which the inhibition at 1 µM in test [1] turned out to be 25.7%. Also, the inhibition at 0.01 µM in test [2] is 15.6%.
On the same counts, the results for `CS(=O)(=O)c1ccc(-n2nc(C(F)(F)F)nc2-c2ccc(F)c(F)c2)cc1F` [Example 35, 1-(3-fluoro-4-methanesulfonylphenyl)-5-(3,4-difluorophenyl)-3-trifluoromethyl-1H-1,2,4-triazole] are 21.2% and 15.5%.
On the same counts, the results for `CS(=O)(=O)c1ccc(-n2nc(C(F)(F)F)nc2-c2ccc(Br)cc2)cc1F` [Example 25, 1-(3-fluoro-4-methanesulfonylphenyl)-5-(4-bromophenyl)-3-trifluoromethyl-1H-1,2,4-triazole] are 19.5% and 13.7%.
On to `CS(=O)(=O)c1ccc(-n2nc(C(F)(F)F)nc2-c2ccc3c(c2)OCO3)cc1F` [Example 34, 5-([1,3]benzodioxole-5-yl)-1-(3-fluoro-4-methanesulfonylphenyl)-3-trifluoromethyl-1H-1,2,4-triazole], for which the inhibition at 1 µM in test [1] came to 11.2%. Also, the inhibition at 0.01 µM in test [2] came out at 41.5%.
For the compound `Cc1ccc(-c2nc(C(F)(F)F)nn2-c2ccc(S(C)(=O)=O)c(F)c2)cc1` [Example 27, 1-(3-fluoro-4-methanesulfonylphenyl)-5-(4-methylphenyl)-3-trifluoromethyl-1H-1,2,4-triazole], the inhibition at 1 µM in test [1] worked out at 26.4%. Moreover, in test [2], the inhibition at 0.01 µM was 19%.
The corresponding values for `CS(=O)(=O)c1ccc(-n2nc(C(F)(F)F)nc2-c2ccccc2)cc1F` [Example 22, 1-(3-fluoro-4-methanesulfonylphenyl)-5-phenyl-3-trifluoromethyl-1H-1,2,4-triazole] are 32.8% and 13.7%.
On the same counts, the results for `COc1ccc(-c2nc(C(F)(F)F)nn2-c2ccc(S(C)(=O)=O)c(F)c2)cc1F` [Example 31, 1-(3-fluoro-4-methanesulfonylphenyl)-5-(3-fluoro-4-methoxyphenyl)-3-trifluoromethyl-1H-1,2,4-triazole] are 26.4% and 16.2%.

The inhibition is the change of the read-out against control, counted positive when it falls.

Source of the values: patent US6849652B1, “1,2,4-triazole derivative, method for preparing the same, and pharmaceutical composition containing the same” (CJ Corp., priority 2002, dated 2005).
